From paper PMC8196714, “Design, Radiosynthesis and Preliminary Biological Evaluation in Mice of a Brain-Penetrant ^18F-Labelled σ2 Receptor Ligand” (International Journal of Molecular Sciences, 2021)

Columns and labels:
[1] = Dynamic PET imaging in CD1 mice; assay type: in vivo; conditions: i.v.
Description: As expected by the optimal lipophilicity of [^18F]RM273 (see 2.3, [43]) the PET images and the time–activity curve obtained for the whole brain shown in Figure 6 indicate a fast permeation of the BBB with a mean standardized uptake value (SUV) of 1.3 ± 0.4 at 2.25 min p.i. (n = 4).
The biodistribution of [^18F]RM273 in mice was assessed by dynamic small animal PET (Nanoscan, Mediso, Budapest, Hungary) 60 min recordings, followed by T1 weighted (GRE, TR/TE = 15.0/2.4 ms, 252/252, FA = 25°) imaging for anatomical correlation and attenuation correction. The mice weighing 31.7 ± 3.8 g were anaesthetized with 2% isoflurane in 60% oxygen and placed on a thermostatically heated animal bed. [^18F]RM273 (7.2 ± 1.1 MBq) was injected i.v. into the lateral tail vein (bolus within 5 s) at the start of the PET-acquisition. List mode PET data were binned as a series of attenuation-corrected sinogram frames (12 × 10 s, 6 × 30 s, 5 × 60 s and 10 × 300 s) and were reconstructed by Ordered Subset Expectation Maximization (OSEM3D) with four iterations, six subsets, and a voxel size of 0.4 mm^3 (Nucline v2.01, Mediso, Hungary). The analysis of reconstructed datasets was performed with PMOD software (v4.103, PMOD Technologies LLC, Zurich, Switzerland). […]

σ2 receptor = molecular target: T1, σ2 receptor (Rattus norvegicus, UniProt Q5U3Y7); test: In vitro autoradiography on rat brain cryosections (healthy and orthotopic F98 glioblastoma); assay type: binding; parameters: from tissue; host or cells: rat brain cryosections (SPRD healthy; Fisher F344 with orthotopic F98 glioblastoma); conditions: for specific binding sites: at 1.5 nM [18F]RM273; for Kd: rat brain cryosections, n = 2
T1 sequence (Q5U3Y7 1-176): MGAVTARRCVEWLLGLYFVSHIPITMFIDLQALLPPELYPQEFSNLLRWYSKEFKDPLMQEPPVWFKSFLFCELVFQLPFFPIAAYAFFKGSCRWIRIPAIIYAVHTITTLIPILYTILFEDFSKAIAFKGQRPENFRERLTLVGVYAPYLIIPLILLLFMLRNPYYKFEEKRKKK
Excerpt: Initially, we investigated the binding of [^18F]RM273 on rat brain slices by autoradiography to compare the distribution pattern with that of established σ2 receptor ligands and to examine the target specificity. The highest binding was found in the cortical areas and hippocampal structures. […] Accordingly, we proceeded to investigate, in a rat glioblastoma model, the potential suitability of [^18F]RM273 for molecular characterization of cancer. At first, homologous competition studies using membrane homogenates of the rat glioma cell line F98 were performed to determine the σ2 receptor binding parameters of [^18F]RM273 cells (Figure 3).
We subsequently investigated the binding parameters of [^18F]RM273 by in vitro autoradiography using cryosections of rat brains obtained three weeks after stereotactic implantation of F98 rat glioblastoma cells into the left striatum. Initially, we performed a homologous displacement study to directly compare the binding sites of the new radioligand in a healthy brain and a brain tumor. The inhibition curves presented in Figure 3 indicate binding of [^18F]RM273 to single binding sites in both brain regions. […] Further supporting the assumption of a tumor-specific overexpression of σ2 receptors, a remarkably high density of binding sites of [^18F]RM273 in the F98 tumor tissue was observed (Figure 4). Compared to the healthy tissue (contralateral side), about three times more specific binding sites of [^18F]RM273 were estimated for the tumor region (32 × 10^−9 mol/L vs. 94 × 10^−9 mol/L at 1.5 nM [^18F]RM273).
In vitro autoradiography was performed using cryosections of brains of a healthy rat (SPRD, female, 250 g; Medizinisch-Experimentelles Zentrum, Universität Leipzig, Leipzig, Germany) and brains obtained from rats (Fisher F344/HanZtmRj, male, ≈260 g; Janvier Labs, Le Genest-Saint-Isle, France) 23 days after stereotactic implantation of 5 × 10^4 F98 cells in the […] striatum (n = 2).
Immediately after isolation, the brains were frozen by immersion in isopentane at −25 °C. Cryosections of 12 μm (Microm HM560 cryostat, Thermo Scientific, Schwerte, Germany) were mounted on microscopic glass slides, dried at room temperature, and stored at −25 °C. For the experiment, the slices were dried at room temperature under a stream of cold air before pre-incubation in PBS, pH 7.4, at room temperature for 15 min. […] Co-incubation with serial dilutions of RM273 (10^−10–10^−6 M) was performed to determine an inhibition curve. After 60 min, the incubation at room temperature was terminated by decanting and washing the slides by two consecutive incubations in ice-cold washing buffer (50 mM TRIS-HCl, pH 7.4 at 4 °C) for two min each, followed by dipping in ice-cold demineralized water for 5 sec and drying under a stream of cold air. In parallel, for subsequent quantification of the data obtained from the homologous competition experiment, defined volumes, and thus defined activities of the radioligand solution, were pipetted onto a microscopic glass slide (0.5–3 μL = 0.0355–0.213 kBq) and dried. Afterwards the tissue samples along with the standards were exposed to an ^18F-sensitive phosphor screen (ABC) for two hours. Image acquisition was performed using a phosphorimager (HD-CR 35; DÜRR NDT GmbH & Co. KG, Bietigheim-Bissingen, Germany). Analysis of the digitized images was performed by image analysis software (AIDA; Elysia-raytest GmbH, Straubenhardt, Germany).
Irregular regions of interest (ROI) were drawn on the standard spots and the different brain regions, which were confirmed by Nissl staining of the identical brain sections. Optical density measured in each ROI was expressed as quantum levels per unit area (QL/pixel) with a pixel size of 12.5 μm^2. From the calibration curve obtained from the standards by plotting QL vs. activity, the QL values of the ROIs were converted to activity values followed by conversion to chemical concentration of RM273 based on the molar activity of [^18F]RM273. […]

mean standardized uptake value (SUV), whole brain ([1]; 2.25 min p.i., n = 4): 1.3 ± 0.4
peak-to-endpoint ratio, brain ([1]; 60 min PET): 6.4 ± 0.9
specific binding sites (σ2 receptor; F98 tumor region): 9.4e-08 mol/L
Kd (σ2 receptor; contralateral striatum / contralateral brain): 2.93 nM
specific binding sites (σ2 receptor; healthy tissue (contralateral side)): 3.2e-08 mol/L
Kd (σ2 receptor; orthotopically grown F98 tumor region): 4.82 nM
SMILES: COc1cc2c(cc1OC)CN(CCCCn1ccc3ccc([18F])nc31)CC2 [[^18F]RM273]
